Marks after values point to notes of the source that are not given here.
Tests used:
[1] = system: engineered cardiac constructs cultured in mixed dishes; experiment: Contractile function (ET, MCR) of dish-grown constructs, palmitoleic acid treatment and washout; assay type: cell-based, rat
Procedure: (§1) Contractile function. The contractile function of engineered cardiac constructs was evaluated by monitoring contractile activity upon electrical stimulation at ×10 magnification using a microscope (Nikon Diaphot). Each construct was placed in a 100-mm petri dish containing […] Tyrode solution (140 mM NaCl, 5.4 mM KC1, 0.33 mM NaH2PO4, 1.8 mM CaCl2, 1 mM MgCl2, 5 mM HEPES, and 5.5 MM D-glucose; pH 7.4) between two custom-made gold electrodes connected to a cardiac stimulator (Nihon Kohden). The temperature was maintained at 37° C. using a heating tape (VWR) attached to the bottom of the petri dish.
(§2) The maximum capture rate (MCR) was defined as the maximum pacing frequency (in beats/min) for a synchronous stimulus response of the constructs. To measure MCR, the stimulation frequency was increased (from 60 to 600 beats/min, in 20 beats/min increments) at a constant voltage (equal to either 150% or 200% of the ET). The construct response was measured at each frequency, and the frequency was increased until the contractions became asynchronous, irregular, or completely ceased. The maximum frequency for synchronous contractions was recorded as the MCR. The value of ET, which was different from one construct to another due to the differences in their structures, served as the baseline voltage for the measurement of MCR.
(§3) Constructs cultured in perfused cartridges were compared with constructs cultured in mixed dishes and to neonatal rat ventricles (full thickness slices obtained by bisecting the left ventricle parallel to the base apex line). The effect of palmitoleic acid (PA), a gap junction blocker (4), was investigated by incubating constructs or slices of native ventricles in PA (8.3 mM in Tyrode solution) for 20 min at 37° C. and then determining ET and MCR as described above. To test whether the effect of PA was reversible, constructs were transferred to Tyrode solution and retested after an additional 20 min at 37° C.

[2] = system: engineered cardiac constructs; experiment: Contractile activity of constructs during incubation with palmitoleic acid; assay type: cell-based, rat
Procedure: as §1, §3

neonatal rat ventricles = experiment: Contractile function (ET, MCR) of neonatal rat ventricle slices, palmitoleic acid treatment and washout; assay type: cell-based; conditions: mean +/- SE
Procedure: as §1, §2, §3

[3] = system: engineered cardiac constructs cultured in perfused cartridges; experiment: Contractile function (ET, MCR) of perfused constructs, palmitoleic acid treatment and washout; assay type: cell-based, rat; conditions: mean +/- SE
Procedure: as §1, §2, §3

[4] = dish-grown construct, after washout of PA, mean +/- SE
[5] = perfused construct, after washout of PA

## CCCCCC/C=C\CCCCCCCC(=O)O [PA, palmitoleic acid]
[1]; dish-grown construct (7 days at 25 rpm), after washout of PA (8.3 mM, 20 min), 60 beats/min, mean +/- SE
  ET (excitation threshold), After PA: 4.4 +/− 0.1^ab V
[1]; [4]
  MCR at 150% ET, After PA: 378 +/− 31^c beats/min
  MCR at 200% ET, After PA: 380 +/− 31^c beats/min
[1]; dish-grown constructs
  Recovery of MCR after PA washout: failed to recover their baseline levels
[2]; after transfer to Tyrode solution, 20 min at 37° C.
  Contractile activity after the washout of PA: Contractile activity resumed
[2]; upon incubation with PA (8.3 mM in Tyrode solution)
  Voltage at which synchronous construct contractions could not be induced: > 9.9 V
Neonatal rat ventricles; after washout of PA (8.3 mM, 20 min, 37° C.), stimulation 60 beats/min
  ET (excitation threshold), After PA: 1.5 +/− 0.1 V
Neonatal rat ventricles; after washout of PA
  MCR at 150% ET, After PA: 465 +/− 15 beats/min
  MCR at 200% ET, After PA: 427 +/− 58 beats/min
[3]; perfused construct (7 days at 500 μm/s), after washout of PA (8.3 mM, 20 min), 60 beats/min
  ET (excitation threshold), After PA: 3.5 +/− 0.1^a V
[3]; [5]
  MCR at 150% ET, After PA: 415 +/− 35 beats/min
  MCR at 200% ET, After PA: 435 +/− 45 beats/min

Reference: patent publication US8367410B2, “Application of electrical stimulation for functional tissue engineering in vitro and in vivo” (Massachusetts Institute of Technology, priority 2003, dated 2013)
